Our source for the Ki values is US10584128B2, “Bicyclic dihydropyrimidine-carboxamide derivatives as Rho-Kinase inhibitors” (CHIESI FARMACEUTICI S.p.A., priority 2016, dated 2020).

pKi: −log10 of the molar value.

As usually defined, the pKi is −log10 of the Ki, conventionally taken in molar units.

Assay [1] addresses Rho kinase 1 (Homo sapiens, UniProt Q13464). Kind of assay: In vitro Rho kinase inhibitory activity assay (ADP-Glo kit, Myelin Basic Protein substrate). It counts as biochemical. Conditions: 10 μM ATP, 25° C., read-out: ROCK1 inhibitory activity (Ki, range of activity). The procedure:
(§1) The effectiveness of compounds of the present invention to inhibit Rho kinase activity can be determined in a 10 μl assay containing 40 mM Tris pH7.5, 20 mM MgCl2 0.1 mg/ml BSA, 50 μM DTT and 2.5 μM peptide substrate (Myelin Basic Protein) using an ADP-Glo kit (Promega). Compounds were dissolved in DMSO such that the final concentration of DMSO was 1% in the assay. All reactions/incubations are performed at 25° C. Compound (2 ul) and either Rho kinase 1 or 2 (4 μl) were mixed and incubated for 30 mins. Reactions were initiated by addition of ATP (4 μl) such that the final concentration of ATP in the assay was 10 μM. After a 1 hour incubation 10 μl of ADP-Glo Reagent was added and after a further 45 minute incubation 20 ul of Kinase Detection Buffer was added and the mixture incubated for a further 30 minutes. The luminescent signal was measured on a luminometer. […] Compounds were tested in dose-response format and the inhibition of kinase activity was calculated at each concentration of compound. To determine the IC50 (concentration of compound required to inhibit 50% of the enzyme activity) data were fit to a plot of % inhibition vs Log10 compound concentration using a sigmoidal fit with a variable slope and fixing the maximum to 100% and the minimum to 0%. To determine the Ki values the Cheng-Prusoff equation was utilized (Ki=IC50/(1+[S]/Km).
In general terms: In ADP-Glo the light output rises with the ADP produced.

Assay [2] concerns the target Rho kinase 2 (Homo sapiens, UniProt O75116). The assay is described as above. Conditions: 10 μM ATP, 25° C., read-out: ROCK2 inhibitory activity (Ki, range of activity). It counts as biochemical. The procedure:
as §1

Sequence of Rho kinase 1 (Q13464 whole entry): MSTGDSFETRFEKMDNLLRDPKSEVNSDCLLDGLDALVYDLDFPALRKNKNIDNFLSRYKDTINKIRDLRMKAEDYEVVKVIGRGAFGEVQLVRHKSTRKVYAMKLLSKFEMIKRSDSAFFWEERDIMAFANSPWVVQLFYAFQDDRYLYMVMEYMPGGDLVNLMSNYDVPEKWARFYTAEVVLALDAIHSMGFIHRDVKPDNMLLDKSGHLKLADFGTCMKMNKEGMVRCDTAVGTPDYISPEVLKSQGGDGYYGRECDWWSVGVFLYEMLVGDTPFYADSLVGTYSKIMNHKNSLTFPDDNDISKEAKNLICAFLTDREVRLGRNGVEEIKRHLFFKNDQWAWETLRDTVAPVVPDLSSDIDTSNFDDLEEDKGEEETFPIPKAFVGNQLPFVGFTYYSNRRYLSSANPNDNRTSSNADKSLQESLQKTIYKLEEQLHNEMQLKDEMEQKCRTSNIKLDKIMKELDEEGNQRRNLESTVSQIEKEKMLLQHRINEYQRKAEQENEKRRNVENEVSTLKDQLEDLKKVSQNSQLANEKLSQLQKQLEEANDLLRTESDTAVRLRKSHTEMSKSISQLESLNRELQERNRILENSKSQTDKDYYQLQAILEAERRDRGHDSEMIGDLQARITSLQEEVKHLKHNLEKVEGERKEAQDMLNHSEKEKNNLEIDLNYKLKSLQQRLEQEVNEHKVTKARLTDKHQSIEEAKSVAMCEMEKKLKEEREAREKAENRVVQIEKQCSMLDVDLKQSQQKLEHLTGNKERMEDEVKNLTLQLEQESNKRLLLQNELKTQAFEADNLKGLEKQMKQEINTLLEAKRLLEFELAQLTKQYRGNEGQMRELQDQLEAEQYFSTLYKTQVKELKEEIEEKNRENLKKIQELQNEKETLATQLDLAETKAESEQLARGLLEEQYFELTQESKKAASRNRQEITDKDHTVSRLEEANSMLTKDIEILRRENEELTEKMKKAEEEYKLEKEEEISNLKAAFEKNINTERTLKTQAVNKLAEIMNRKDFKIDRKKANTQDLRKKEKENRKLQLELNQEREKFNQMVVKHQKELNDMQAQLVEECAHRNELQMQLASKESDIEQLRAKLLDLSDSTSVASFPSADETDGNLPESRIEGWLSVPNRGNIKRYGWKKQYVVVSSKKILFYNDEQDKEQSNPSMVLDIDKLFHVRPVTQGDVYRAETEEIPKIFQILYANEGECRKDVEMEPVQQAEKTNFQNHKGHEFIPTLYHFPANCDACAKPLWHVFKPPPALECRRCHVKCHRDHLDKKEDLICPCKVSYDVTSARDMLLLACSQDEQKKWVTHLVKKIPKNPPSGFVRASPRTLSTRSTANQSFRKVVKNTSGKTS
Sequence of Rho kinase 2 (O75116 whole entry): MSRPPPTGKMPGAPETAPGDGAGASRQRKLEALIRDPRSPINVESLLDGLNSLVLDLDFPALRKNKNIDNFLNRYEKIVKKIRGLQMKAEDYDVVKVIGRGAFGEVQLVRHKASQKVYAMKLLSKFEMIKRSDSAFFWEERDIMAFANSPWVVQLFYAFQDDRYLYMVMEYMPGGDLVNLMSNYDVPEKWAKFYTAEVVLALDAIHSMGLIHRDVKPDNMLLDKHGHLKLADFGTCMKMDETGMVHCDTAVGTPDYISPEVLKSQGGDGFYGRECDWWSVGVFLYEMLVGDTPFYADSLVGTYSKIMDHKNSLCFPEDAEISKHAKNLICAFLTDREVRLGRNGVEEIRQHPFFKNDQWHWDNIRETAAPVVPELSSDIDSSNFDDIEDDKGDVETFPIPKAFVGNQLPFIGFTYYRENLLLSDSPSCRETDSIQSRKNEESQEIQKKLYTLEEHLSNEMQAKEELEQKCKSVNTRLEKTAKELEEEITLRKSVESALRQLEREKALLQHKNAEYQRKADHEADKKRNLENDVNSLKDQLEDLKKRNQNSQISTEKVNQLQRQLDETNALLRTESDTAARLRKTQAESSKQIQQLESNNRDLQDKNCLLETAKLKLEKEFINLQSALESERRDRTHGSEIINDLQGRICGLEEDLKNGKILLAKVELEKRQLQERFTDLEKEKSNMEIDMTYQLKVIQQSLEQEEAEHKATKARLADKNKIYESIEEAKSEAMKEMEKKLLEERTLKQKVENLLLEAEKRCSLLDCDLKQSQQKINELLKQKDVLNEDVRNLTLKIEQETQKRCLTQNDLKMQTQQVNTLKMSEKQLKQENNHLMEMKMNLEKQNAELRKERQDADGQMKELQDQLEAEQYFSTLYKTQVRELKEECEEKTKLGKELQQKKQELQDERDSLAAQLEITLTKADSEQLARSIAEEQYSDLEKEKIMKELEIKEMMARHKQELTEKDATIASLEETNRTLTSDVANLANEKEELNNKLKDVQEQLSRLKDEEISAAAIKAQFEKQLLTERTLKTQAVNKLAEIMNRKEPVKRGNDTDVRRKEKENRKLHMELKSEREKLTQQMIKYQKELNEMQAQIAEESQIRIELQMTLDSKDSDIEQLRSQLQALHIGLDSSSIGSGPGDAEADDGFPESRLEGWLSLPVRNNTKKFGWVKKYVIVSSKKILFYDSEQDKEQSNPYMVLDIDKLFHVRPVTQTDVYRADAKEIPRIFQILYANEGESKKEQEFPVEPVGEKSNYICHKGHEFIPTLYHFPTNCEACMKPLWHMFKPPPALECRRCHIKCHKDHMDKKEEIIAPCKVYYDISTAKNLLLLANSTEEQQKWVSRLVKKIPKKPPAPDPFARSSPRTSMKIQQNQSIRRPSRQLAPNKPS

Regarding `CC1=C(C(=O)Nc2ccc3cnccc3c2)C(c2ccc(C(F)(F)F)c(F)c2)n2nc(C(=O)NCCN3CCCCC3)cc2N1` (single isomer, unassigned) [77A], the pKi in assay [1] and in assay [2] was under 6.30 throughout. With `CC1=C(C(=O)Nc2ccc3cnccc3c2)C(c2ccc(C(F)(F)F)c(F)c2)n2nc(C(=O)NCCN3CCCCC3)cc2N1` (single isomer, unassigned) [77B], the pKi in assay [1] and in assay [2] was over 7.30 each time. Consider `CC1=C(C(=O)Nc2ccc3cnccc3c2)C(c2ccc(C(F)(F)F)c(F)c2)n2nc(N)cc2N1` (single isomer, unassigned) [130A], for which the negative-log Ki (pKi) in assay [1] and in assay [2] was under 6.30 in each case. In the case of `CC1=C(C(=O)Nc2ccc3cnccc3c2)C(c2ccc(C(F)(F)F)c(F)c2)n2nc(N)cc2N1` (single isomer, unassigned) [130B], the negative logarithm of the Ki (pKi) in assay [1] and in assay [2] was over 7.30 each time.

On to `CC1=C(C(=O)Nc2ccc3cnccc3c2)C(c2ccc(C(F)(F)F)c(F)c2)n2nc(NC(=O)CCN3CCCCC3)cc2N1` (single isomer, unassigned) [131A], for which the pKi in assay [1] and in assay [2] was over 7.30 in each case. On to `CC1=C(C(=O)Nc2ccc3cnccc3c2)C(c2ccc(C(F)(F)F)c(F)c2)n2nc(NC(=O)CCN3CCCCC3)cc2N1` (single isomer, unassigned) [131B], for which the pKi in assay [2] was over 7.30. As to `CC1=C(C(=O)Nc2ccc3cnccc3c2)C(c2ccc(C(F)(F)F)c(F)c2)n2nc(NC(=O)CN3CCCC3)cc2N1` (single isomer, unassigned) [132A], the negative-log Ki (pKi) in assay [1] and in assay [2] was over 7.30 each time. Turning to `CC1=C(C(=O)Nc2ccc3cnccc3c2)C(c2ccc(C(F)(F)F)c(F)c2)n2nc(NC(=O)CN3CCCC3)cc2N1` (single isomer, unassigned) [132B], the pKi in assay [1] and in assay [2] was under 6.30 throughout. Turning to `CC1=C(C(=O)Nc2ccc3cnccc3c2)C(c2ccc(C(F)(F)F)c(F)c2)n2nc(C3CCN(C(=O)CCN4CCCCC4)CC3)cc2N1` (single isomer, unassigned) [135A], the pKi in assay [1] and in assay [2] was under 6.30 in each case. For `CC1=C(C(=O)Nc2ccc3cnccc3c2)C(c2ccc(C(F)(F)F)c(F)c2)n2nc(C3CCN(C(=O)CCN4CCCCC4)CC3)cc2N1` (single isomer, unassigned) [135B], the pKi in assay [1] and in assay [2] was over 7.30 throughout.

For `CCOC(=O)c1cc2n(n1)C(c1ccc(F)cc1)C(C(=O)Nc1ccc3[nH]ncc3c1)=C(C)N2` (single isomer, unassigned) [Example 4A, ethyl 6-((1H-indazol-5-yl)carbamoyl)-7-(4-fluorophenyl)-5-methyl-4,7-dihydropyrazolo[1,5-a]pyrimidine-2-carboxylate], the pKi in assay [1] and in assay [2] was under 6.30 throughout. With `CCOC(=O)c1cc2n(n1)C(c1ccc(F)cc1)C(C(=O)Nc1ccc3[nH]ncc3c1)=C(C)N2` (single isomer, unassigned) [Example 4B, ethyl 6-((1H-indazol-5-yl)carbamoyl)-7-(4-fluorophenyl)-5-methyl-4,7-dihydropyrazolo[1,5-a]pyrimidine-2-carboxylate], the negative logarithm of the Ki (pKi) in assay [1] and in assay [2] was over 7.30 throughout. Regarding `CCOC(=O)c1cc2n(n1)C(c1ccc(Cl)cc1F)C(C(=O)Nc1ccc3[nH]ncc3c1)=C(C)N2` (single isomer, unassigned) [Example 7A, ethyl 6-((1H-indazol-5-yl)carbamoyl)-7-(4-chloro-2-fluorophenyl)-5-methyl-4,7-dihydropyrazolo[1,5-a]pyrimidine-2-carboxylate], the negative-log Ki (pKi) in assay [1] and in assay [2] was over 7.30 each time. Take `CCOC(=O)c1cc2n(n1)C(c1ccc(Cl)cc1F)C(C(=O)Nc1ccc3[nH]ncc3c1)=C(C)N2` (single isomer, unassigned) [Example 7B, ethyl 6-((1H-indazol-5-yl)carbamoyl)-7-(4-chloro-2-fluorophenyl)-5-methyl-4,7-dihydropyrazolo[1,5-a]pyrimidine-2-carboxylate]: the pKi in assay [1] and in assay [2] was over 7.30 each time. As to `CC1=C(C(=O)Nc2ccc3[nH]ncc3c2)C(c2ccc(F)cc2)n2nnnc2N1` (single isomer, unassigned) [Example 23A, 7-(4-fluorophenyl)-N-(1H-indazol-5-yl)-5-methyl-4,7-dihydrotetrazolo[1,5-a]pyrimidine-6-carboxamide], the negative-log Ki (pKi) in assay [1] and in assay [2] was over 7.30 each time. In the case of `CC1=C(C(=O)Nc2ccc3[nH]ncc3c2)C(c2ccc(F)cc2)n2nnnc2N1` (single isomer, unassigned) [Example 23B, 7-(4-fluorophenyl)-N-(1H-indazol-5-yl)-5-methyl-4,7-dihydrotetrazolo[1,5-a]pyrimidine-6-carboxamide], the pKi in assay [1] and in assay [2] was 6.30 to 7.30 each time. Regarding `CC1=C(C(=O)Nc2ccc3[nH]ncc3c2)C(c2ccc(Cl)cc2)n2nnnc2N1` (single isomer, unassigned) [Example 24A, 7-(4-chlorophenyl)-N-(1H-indazol-5-yl)-5-methyl-4,7-dihydrotetrazolo[1,5-a]pyrimidine-6-carboxamide], the pKi in assay [1] and in assay [2] was over 7.30 throughout. With `CC1=C(C(=O)Nc2ccc3[nH]ncc3c2)C(c2ccc(Cl)cc2)n2nnnc2N1` (single isomer, unassigned) [Example 24B, 7-(4-chlorophenyl)-N-(1H-indazol-5-yl)-5-methyl-4,7-dihydrotetrazolo[1,5-a]pyrimidine-6-carboxamide], the pKi in assay [1] and in assay [2] was 6.30 to 7.30 throughout. For the compound `CC1=C(C(=O)Nc2ccc3[nH]ncc3c2)C(c2ccc(C(F)(F)F)c(F)c2)n2nnnc2N1` (single isomer, unassigned) [Example 25A, 7-(3-fluoro-4-(trifluoromethyl)phenyl)-N-(1H-indazol-5-yl)-5-methyl-4,7-dihydrotetrazolo[1,5-a]pyrimidine-6-carboxamide], the negative-log Ki (pKi) in assay [1] and in assay [2] was over 7.30 each time. As to `CC1=C(C(=O)Nc2ccc3[nH]ncc3c2)C(c2ccc(C(F)(F)F)c(F)c2)n2nnnc2N1` (single isomer, unassigned) [Example 25B, 7-(3-fluoro-4-(trifluoromethyl)phenyl)-N-(1H-indazol-5-yl)-5-methyl-4,7-dihydrotetrazolo[1,5-a]pyrimidine-6-carboxamide], the negative-log Ki (pKi) in assay [1] and in assay [2] was 6.30 to 7.30 throughout. With `CC1=C(C(=O)Nc2ccc3[nH]ncc3c2)C(c2ccc(C(F)(F)F)cc2F)n2nnnc2N1` (single isomer, unassigned) [Example 26A, 7-(2-fluoro-4-(trifluoromethyl)phenyl)-N-(1H-indazol-5-yl)-5-methyl-4,7-dihydrotetrazolo[1,5-a]pyrimidine-6-carboxamide], the negative logarithm of the Ki (pKi) in assay [1] and in assay [2] was over 7.30 in each case. Turning to `CC1=C(C(=O)Nc2ccc3[nH]ncc3c2)C(c2ccc(C(F)(F)F)cc2F)n2nnnc2N1` (single isomer, unassigned) [Example 26B, 7-(2-fluoro-4-(trifluoromethyl)phenyl)-N-(1H-indazol-5-yl)-5-methyl-4,7-dihydrotetrazolo[1,5-a]pyrimidine-6-carboxamide], the pKi in assay [1] and in assay [2] was 6.30 to 7.30 each time. Consider `CC1=C(C(=O)Nc2ccc3[nH]ncc3c2)C(c2ccc(C(F)(F)F)cc2)n2nnnc2N1` (single isomer, unassigned) [Example 27A, N-(1H-indazol-5-yl)-5-methyl-7-(4-(trifluoromethyl)phenyl)-4,7-dihydrotetrazolo[1,5-a]pyrimidine-6-carboxamide], for which the negative-log Ki (pKi) in assay [1] and in assay [2] was over 7.30 throughout. With `CC1=C(C(=O)Nc2ccc3[nH]ncc3c2)C(c2ccc(C(F)(F)F)cc2)n2nnnc2N1` (single isomer, unassigned) [Example 27B, N-(1H-indazol-5-yl)-5-methyl-7-(4-(trifluoromethyl)phenyl)-4,7-dihydrotetrazolo[1,5-a]pyrimidine-6-carboxamide], the negative-log Ki (pKi) in assay [1] and in assay [2] was 6.30 to 7.30 throughout. As for `CC1=C(C(=O)Nc2ccc3[nH]ncc3c2)C(c2ccc(Cl)nc2)n2nc(C(F)(F)F)cc2N1` (single isomer, unassigned) [Example 32A, 7-(6-chloropyridin-3-yl)-N-(1H-indazol-5-yl)-5-methyl-2-(trifluoromethyl)-4,7-dihydropyrazolo[1,5-a]pyrimidine-6-carboxamide], the pKi in assay [1] and in assay [2] was under 6.30 in each case. As to `CC1=C(C(=O)Nc2ccc3cnccc3c2)C(c2ccc(C(F)(F)F)c(F)c2)n2nc(C(=O)NCCN3CCCCC3)nc2N1` (single isomer, unassigned) [Example 129b, 7-(3-fluoro-4-(trifluoromethyl)phenyl)-N6-(isoquinolin-6-yl)-5-methyl-N2-(2-(piperidin-1-yl)ethyl)-4,7-dihydro-[1,2,4]triazolo[1,5-a]pyrimidine-2,6-dicarboxamide], the pKi in assay [1] was over 7.30.
